Assay results from a melting point compilation (Tetko et al.; mined from patent text by program, amines drawn as free bases though some values may be those of a salt).

melting point [°C] | Compound
117 to 119 | CCc1nc2c(cnn2CC)c(NC2CCOCC2)c1CNC(=O)c1cc(C)cc(C(=O)NCc2ccc(C)c(Br)c2)c1
140 to 142 | Cc1c(F)cccc1Cc1c(-c2ccccc2)c2cccnn2c1C(=O)N1CCNCC1
144 to 145 | Cc1cc(=O)n2cccc(O)c2n1
230 to 232 | CC(C)NC(=O)c1ccn2nc(-c3ccccc3)c(-c3ccc(=O)n(C(C)C)n3)c2c1
158 | Cc1cc(C)c2cccc(OCc3c(Cl)ccc(S(=O)(=O)N4CCC[C@H]4C(=O)N4CCN(C(=O)c5cccc(C=NN)c5)CC4)c3Cl)c2n1
199 to 200 | COCc1cnc2c(NC(=O)c3c(Cl)cccc3Cl)cccc2c1CO
139 to 141 | C#CCn1cc(Br)cnc1=O
210 | CCC=Cc1nc2ccccc2n1Cc1ccc(C(=O)O)cc1
236 to 237 | O=c1cc(N2CCOCC2)cc(-c2ccc(Cl)cc2)o1
148 to 150 | CCCc1nc2c(N)nc3cccnc3c2n1CCCCCC(=O)N1CCOCC1
49 to 50 | COCOc1cccc2c(Br)cccc12
208 to 209 | COc1ccc(-c2nc(N)nc(NC(=O)c3cccnc3)n2)c2ccccc12
253 to 255 | Nc1nc(-c2ccc(Cl)cc2C(=O)c2ccccc2)c(CN2C(=O)c3ccccc3C2=O)s1
128 to 139 | COc1cc(OCc2ccncc2)ccc1/C=C/c1cc(/C=C/c2c[nH]c3ccccc23)n[nH]1
30 to 31 | Cc1cc(C)c(F)cc1F
167 to 169 | CC(C)(C)c1cc(Br)c(O)c(C=NO)c1
98 | O=C1Nc2ccc(F)cc2C(CCc2ccccc2)(C(F)(F)F)N1 (racemic)
175 to 176 | O=C(O)c1nc(-c2ccc(-c3ccccc3)cc2)nc2ccccc12
192 to 194 | O=C1NC(=S)SC1=C(c1ccccc1)c1ccccc1
226 | CCc1nc(Cl)nc(N)c1C#N
165 to 167 | CC(=O)Oc1cc(-c2ccccc2)ccc1C1(OC(C)=O)C(=O)c2ccccc2C1=O
45 to 47 | NCC(O)CN1CCN(C(c2ccc(F)cc2)c2ccc(F)cc2)CC1 (centres undefined)

melting point [°C] | Compound
84 to 85 | CC(C)(Cc1cccc(Oc2cccc(CC(C)(C)C(=O)O)c2)c1)C(=O)O
223 to 224 | Cc1c(-c2ccccc2)c2cc(Cl)ccc2n1CC(N)=O
171 to 172 | CCC12CCC(=O)C=C1c1c(cc(OCC#N)c(Cl)c1Cl)C2 (centres undefined)
208 to 210 | Cc1ccc(NC(=O)NN(C(=O)c2ccccc2)C(C)(C)C)cc1
149 to 152 | Cc1ncc(-c2ccccc2)c(C(=O)N(C)Cc2cc(C(F)(F)F)cc(C(F)(F)F)c2)n1
78 to 81 | CC(C)(C)c1cc(OCc2cccc(C#N)c2)cc(C(C)(C)C)c1O
157 to 158 | CCON=C(C)c1cccc(S(N)(=O)=O)c1
225 to 226 | COC(=O)Nc1cc(Cl)nc(N)n1
264 to 266 | Cc1ccc(-c2[nH]c3ccccc3c(=O)c2Cc2ccncc2)cc1
234 to 235 | O=C1Cn2ccnc2-c2c(Br)cccc2N1
> 250 | CC(C)(C)Nc1nc(C#N)c(C#N)nc1N
87.5 to 88.5 | CS(=O)(=O)c1ccc(C2=C(c3ccc(F)c(Cl)c3)CCC2)cc1
224 to 227 | COC(=O)c1csc(-c2ccc([N+](=O)[O-])cc2)n1
225 | NS(=O)(=O)c1ccc(CCN2C(=O)c3ccccc3C2(O)c2ccccc2)cc1 (centres undefined)
208 to 210 | Cc1c(-c2cc(C(F)(F)F)cc(C(F)(F)F)c2)ccc2nc(N=CN(C)C)nc(N=CN(C)C)c12
142 | CSc1nnc(C(O)(c2ccc(Cl)cc2)c2ccc3nc(C)cc(-c4cccc(Cl)c4)c3c2)n1C (centres undefined)
66 to 68 | CCOC(=O)CC(=O)c1csc(-c2ccccc2)n1
47 to 49 | CN(C)CC(F)(F)[C@H](O)[C@@H](N)CC1CCCCC1
95 to 98 | CCOC(=O)c1c(SC)nn(-c2c(Cl)cc(Cl)cc2Cl)c1C
126 to 127 | CC(C)(C)c1ccc(OC2CN(C(c3ccccc3)c3ccccc3)C2)cc1
> 300 | O=c1c2cnc(Cl)cc2[nH]c2ccnn12
149 to 150 | COc1cc(OC)nc(NC(=O)NS(=O)(=O)c2ccccc2CO)n1

melting point [°C] | Compound
185 | CO[C@@H]1[C@@H](OC)[C@H](C)O[C@@H](ONC(=O)c2ccc(-c3cn(-c4ccc(OC(F)(F)F)cc4)cn3)cc2)[C@@H]1OC
128 to 129 | CCOC(=O)c1csc2cc(O)ccc12
126 | COC(=O)c1ccnc2ccc(C(=O)c3ccc(Cl)cc3)cc12
99 to 101 | COC(=O)c1ccc(OCc2ccc(Cl)cc2)cc1OCc1ccccc1
93.7 to 95.7 | CCOC(=O)c1cnc2ccc(OC)cc2c1Cl
223 to 225 | COC(=O)c1cccc(Nc2nccc(-c3sc(N)nc3-c3ccccc3)n2)c1
156 to 157 | O=C1COc2cc(Sc3ccc(O)cc3)ccc2N1
57 to 59 | CC(C)(C)OC(=O)NCC(Cl)c1ccccc1 (centres undefined)
> 270 | Fc1ccc(-c2nc(S)nc(-c3ccccn3)n2)cc1
109 to 112 | CNC(=O)N(OC)c1ccccc1COc1ccc2c(c1)OCC2=NOC
151 to 154 | CC1=C(C(=O)OCCOC(C)C)C(c2cccc(Cl)c2Cl)C(c2nnco2)=C(C)N1 (centres undefined)
74 to 76 | C(=CCON(c1ccccc1)c1ccccc1)CON(c1ccccc1)c1ccccc1
164 to 165 | Cn1ccnc1N1CCN(CC(=O)c2ccc(NS(C)(=O)=O)cc2)CC1
64 to 65 | CC(C)[C@H]1COC(=O)N1C(=O)[C@H](C)CC(=O)OC(C)(C)C
58 to 59 | CCOc1cc(N(CC)CC)ccc1C=O
93 to 94 | Cc1cc(CCCOc2c(C)cc(-c3noc(C#N)n3)cc2C)on1
181 to 182 | COCCOC(=O)C1=C(C)Nc2nccn2C1c1ccccc1C(F)(F)F (centres undefined)
44 to 47 | CCCCCCCCCCCCCCCC(=O)SC1CCN(C(C(=O)OC)c2ccccc2F)CC1 (centres undefined)
143 to 145 | CCOc1ccc(-c2[nH]c3ccc(OCc4ccccc4)cc3c2C)cc1
166 | CCCc1c(CSc2nnc(NC(=O)CCC(=O)OCC)s2)ccc(C(C)=O)c1O
192 to 195 | NC(=NCC(F)(F)F)Nc1ccnc(SCCN2C(=O)c3ccccc3C2=O)n1
275 | Cc1cc(S(=O)(=O)O)c(NC(=O)Nc2cccc(Br)c2)cc1Cl

melting point [°C] | Compound
67 to 70 | CC(C)(C)C#CC(O)C#CC(C)(C)C
243 to 245 | Fc1ccc(-c2nn3c(-c4ccccc4)cc(-c4ccccc4)nc3c2-c2ccncc2)cc1
112 to 114 | Cc1cn(C(C)C(=O)N(C)c2ccccc2)nc1-c1ccccc1 (centres undefined)
128 to 130 | CC(C)C[C@H](NC(=O)[C@H](Cc1ccccc1)NC(=O)OCc1ccccc1)C(=O)N[C@@H](C(C)C)[C@@H](O)c1c(-c2ccccc2)c1=O
186 | CCOC(=O)Cc1c(C(=O)OCC)[nH]c(C)c1-c1nc(-c2ccc(OC)cc2)c(-c2ccc(OC)cc2)[nH]1
105 to 106 | CCCc1cc(C(=O)CCCC(=O)O)ccc1OC
121 to 122 | COc1cc(OC)nc(-n2c(OC)nc3ccccc32)n1
79 to 80 | CCOC(=O)C1(C)CCc2ccccc2O1 (centres undefined)
66 to 68 | COC(=O)CC(C#Cc1cccc(-c2noc(C)n2)c1)c1ccc(OC)c(OC2CCCC2)c1 (racemic)
190 to 191 | CCOC(=O)C(=O)Nc1c([N+](=O)[O-])cc(Br)c2ccccc12
103 to 104 | CCOC(=O)C1=NN(c2cccc(Cl)c2)C(c2ccccc2)CO1 (centres undefined)
69 | COC(=S)C1CCn2c(C(=O)c3ccccc3)ccc21 (centres undefined)
169 to 171 | O=C1c2ccccc2-c2c1c1ccccc1c(=O)n2CCCCCNS(=O)(=O)c1ccc(Br)cc1
57 to 59 | CS(=O)(=O)Nc1ccc(C(O)CNC2CCN(c3ccc(CC4SC(=O)NC4=O)cc3)CC2)cn1 (centres undefined)
204 to 205 | Cc1onc(-c2ccccc2)c1-c1csc(NC(=O)C(N)=O)n1
215 to 216 | Cc1noc(C)c1-c1cnc2c(c1)N(Cc1c(F)ccc(F)c1Cl)CCN2
169 to 171 | CC(C)(C(=O)O)c1oc2cccc-2cc1-c1ccccc1
129 to 130 | CCOC(=O)c1c(CN2CCCCC2)nc2cc(OC)c(OC)cc2c1-c1ccc(OC)cc1
175 to 176 | C[C@@H]1Cc2cc3c(cc2C(c2ccc([N+](=O)[O-])cc2)=NN1c1cnns1)OCO3
118 to 119 | COC(=O)c1cc(Cl)c(NC(C)=O)cc1OC1CCOC1=O (centres undefined)
160 | CSc1ncc(S(=O)(=O)NC(=O)NC(C)C)c(Nc2cccc(C)c2)n1
94 | OC(CNCCc1cc(Br)sc1Br)c1ccccc1 (centres undefined)

Compound | melting point [°C]
Cn1cncc1C(O)(c1ccc(Cl)cc1)c1ccc2c(c1)C(c1cccc(Cl)c1)SCC(=O)N2 (centres undefined) | 210
CN(C)C(=CC(=O)C(F)(F)F)NCc1ccc(Cl)nc1 | 85
C#Cc1ccc2c(c1)C(c1ccccc1)=NCc1c(C(=O)NC)ncn1-2 | 237 to 238
CCO[PH](=O)C#Cc1c(C(C)C)c2ccccc2n1-c1ccc(F)cc1 (centres undefined) | 80 to 82.5
CCN(CC)C(=O)c1ccc(C(c2cccc(O)c2)N2CC(C)N(CC#N)CC2C)cc1 (centres undefined) | 190 to 192
c1cc(-c2cn([C@H]3CN4CCC3CC4)nn2)ccn1 | 150
N#CC(C(=O)CF)c1cccc(Cl)c1 (centres undefined) | 90 to 96
C1=C(c2nc(-c3ccccc3)no2)CCN(Cc2c[nH]c3ncccc23)C1 | 207 to 209
COc1cccc2c1OC1C3CCC4(C(=O)N(CC5CC5)CCC214)C(C(C)(O)C(C)(C)C)C3 (centres undefined) | 205 to 206
FC(F)(F)c1ccc2c(c1)C(c1ccccc1)=NCc1nncn1-2 | 258 to 260
N#Cc1nn(-c2c(Cl)cc(C(F)(F)F)cc2Cl)c(-n2cccc2)c1S(=O)C(F)(F)F (centres undefined) | 165 to 167
